Consider 21 compounds from patent US12091405B2, “Substituted pyrazole compounds as indoleamine 2,3-dioxygenase inhibitors” (Merck Sharp & Dohme LLC, priority 2018, dated 2024).

The test concerns the target IDO1 (Homo sapiens, UniProt P14902). The experiment in a line: IDO1 Cellular Assay in HeLa Cells Stimulated with IFNγ. Type of test: cell-based. The note with it: IFNγ 100 ng/mL, 300 uM L-tryptophan, about 48 hours, fluorescence readout, read-out: IDO1 HELA Cell Assay, IC50. The protocol:
Biological Assays IDO1 Cellular Assay in HeLa Cells Stimulated with IFNγ
HeLa cells were cultured in complete HeLa culture medium (90% EMEM, 10% heat-inactivated fetal bovine serum) and expanded to about 1×10^9 cells. The cells were then collected and frozen down at 1×10^7 cells/vial in 1 mL frozen medium (90% complete HeLa culture medium, 10% DMSO).
Compounds to be tested were serially diluted in ten 3-fold steps in DMSO starting from 10 mM DMSO stocks in Echo low volume plate(s). Compound dilutions or DMSO alone were then dispensed from the dilution plate(s) into Greiner black 384-well assay plate(s) (catalog #781086, 50 nL/well) using an Echo 550 acoustic liquid handler (Labcyte).
Frozen HeLa cells were thawed and transferred into HeLa assay medium (99% complete HeLa culture medium, 1% Pen/Strep) with 20 mL medium/vial of cells. The cells were spun down at 250 g in a table top centrifuge for 5 min and suspended in same volume of HeLa assay medium. The cells were then counted and adjusted to a density of 2×10^5 cells/mL in HeLa assay medium. Sterile L-tryptophan were added to the cells with final concentration of 300 uM L-tryptophan. A small aliquot (2 mL/plate) of HeLa cells were set aside and were not treated with IFNγ, to serve as the Max-E control.
HeLa cells with and without IFNγ were dispensed to the respective wells of 384-well assay plates containing the compounds. The plates were incubated for about 48 hours at a 37° C., 5% CO2 incubator. Afterwards, 12 μL of 0.5 M methyl isonipecotate in dimethyl sulfoxide were added into each well and the plates were sealed and incubated at 37° C. without CO2 overnight. The plates were centrifuged for 1 min at 200×g. The resulting fluorescence was measured in a Spectramax plate reader (Molecular Devices) with a 400 nm excitation filter and a 510 nm emission filter.
The fluorescence intensity of each well was corrected for the background observed in wells with non-IFNγ-treated cells and was expressed as a fraction of the intensity observed in wells of IFNγ-treated cells and DMSO only. Potencies were calculated by linear least squares fit to the four parameter logistic IC50 equation.
Compounds disclosed herein generally have IC50 of about 0.1 nM to about 20,000 nM, or more specifically, about 1 nM to about 10,000 nM, or more specifically, about 5 nM to about 5,000 nM, or more specifically, about 10 nM to about 1,000 nM, or still more specifically, about 10 nM to about 500 nM.

Molecules are shown by their SMILES.

The IC50 is the concentration that gives 50% inhibition.

Chain of IDO1 (P14902 whole entry): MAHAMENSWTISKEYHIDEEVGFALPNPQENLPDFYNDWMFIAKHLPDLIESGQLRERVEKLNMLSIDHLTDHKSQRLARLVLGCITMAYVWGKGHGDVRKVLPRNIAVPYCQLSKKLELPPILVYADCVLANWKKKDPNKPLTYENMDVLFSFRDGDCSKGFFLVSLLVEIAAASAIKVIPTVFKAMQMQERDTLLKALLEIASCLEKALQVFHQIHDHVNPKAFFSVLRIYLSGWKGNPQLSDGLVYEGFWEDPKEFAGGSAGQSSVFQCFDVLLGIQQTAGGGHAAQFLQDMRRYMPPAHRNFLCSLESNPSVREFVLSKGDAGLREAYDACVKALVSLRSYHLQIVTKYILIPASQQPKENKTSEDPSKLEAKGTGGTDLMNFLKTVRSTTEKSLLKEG

For `C[C@@H]1CN(C(=O)c2nn(CC(=O)N3CCC(c4ccccc4C4CC4)CC3)c3c2CCC3)C[C@H](C)O1` [Example 113, 1-[4-(2-cyclopropylphenyl)piperidin-1-yl]-2-{3-[(2R,6S)-2,6-dimethylmorpholine-4-carbonyl]-5,6-dihydrocyclopenta[c]pyrazol-1(4H)-yl}ethan-1-one], the IC50 was 42.6 nM.

Take `C[C@@H]1CN(C(=O)c2nn(CC(=O)N3CCC(c4cccc(C5(C)CC5)c4)CC3)c3c2CCC3)C[C@H](C)O1` [Example 125, 2-{3-[(2R,6S)-2,6-dimethylmorpholine-4-carbonyl]-5,6-dihydrocyclopenta[c]pyrazol-1(4H)-yl}-1-{4-[3-(1-methylcyclopropyl)phenyl]piperidin-1-yl}ethan-1-one]: the IC50 came to 57.7 nM.

With `Cc1cc(C)c(C2CCN(C(=O)Cn3nc(C(=O)N4C[C@@H](C)O[C@@H](C)C4)c4c3CCC4)CC2)cc1C` [Example 136, 2-{3-[(2R,6S)-2,6-dimethylmorpholine-4-carbonyl]-5,6-dihydrocyclopenta[c]pyrazol-1(4H)-yl}-1-[4-(2,4,5-trimethylphenyl)piperidin-1-yl]ethan-1-one], the IC50 turned out to be 85 nM.

On to `Cc1cc(F)ccc1C1CCN(C(=O)Cn2nc(C(=O)N3CCN(C(=O)CO)CC3)c3c2CCC3)CC1` [Example 57, 1-(4-(4-fluoro-2-methylphenyl)piperidin-1-yl)-2-(3-(4-(2-hydroxyacetyl)piperazine-1-carbonyl)-5,6-dihydrocyclopenta[c]pyrazol-1(4H)-yl)ethanone], for which the half-inhibitory concentration (IC50) stood at 289 nM.

`C[C@@H]1CN(C(=O)c2nn(CC(=O)N3CCC(c4cccc5ccsc45)CC3)c3c2CCC3)C[C@H](C)O1` [Example 84, 1-[4-(benzothiophen-7-yl)-1-piperidyl]-2-[3-[(2S,6R)-2,6-dimethylmorpholine-4-carbonyl]-5,6-dihydro-4H-cyclopenta[c]pyrazol-2-ium-1-yl]ethanone;2,2,2-trifluoroacetate]: the 50% inhibitory concentration (IC50) came to 4.7 nM.

As to `C[C@@H]1CN(C(=O)c2nn(CC(=O)N3CCC(c4ccccc4Cl)C3)c3c2CCC3)C[C@H](C)O1` (stereo partly drawn) [Example 78, 1-[3-(2-chlorophenyl)pyrrolidin-1-yl]-2-{3-[(2R,6S)-2,6-dimethylmorpholine-4-carbonyl]-5,6-dihydrocyclopenta[c]pyrazol-1(4H)-yl}ethan-1-one], the half-inhibitory concentration (IC50) turned out to be 346 nM.

As for `C[C@@H]1CN(C(=O)c2nn(CC(=O)N3CCC(c4ccccc4Cl)CC3)c3c2CCC3)C[C@H](C)O1` [Example 157, 1-[4-(2-chlorophenyl)piperidin-1-yl]-2-{3-[(2R,6S)-2,6-dimethylmorpholine-4-carbonyl]-5,6-dihydrocyclopenta[c]pyrazol-1(4H)-yl}ethan-1-one], the concentration for half-maximal inhibition (IC50) came to 150 nM.

In the case of `C[C@@H]1CN(C(=O)c2nn(CC(=O)N3CCC(c4ccccc4)CC3)c3c2CCC3)C[C@H](C)O1` [Example 70, 2-{3-[(2R,6S)-2,6-dimethylmorpholine-4-carbonyl]-5,6-dihydrocyclopenta[c]pyrazol-1(4H)-yl}-1-(4-phenylpiperidin-1-yl)ethan-1-one], the 50% inhibitory concentration (IC50) stood at 79.4 nM.

`COc1ccccc1C1CCN(C(=O)Cn2nc(C(=O)N3C[C@@H](C)O[C@@H](C)C3)c3c2CCC3)CC1` [Example 75, 2-{3-[(2R,6S)-2,6-dimethylmorpholine-4-carbonyl]-5,6-dihydrocyclopenta[c]pyrazol-1(4H)-yl}-1-[4-(2-methoxyphenyl)piperidin-1-yl]ethan-1-one]: the half-maximal inhibitory concentration (IC50) stood at 195 nM.

As to `Cc1cccc(C2CCN(C(=O)Cn3nc(C(=O)N4CCC(O)CC4)c4c3CCCC4)CC2)c1C` [Example 34, 1-(4-(2,3-dimethylphenyl)piperidin-1-yl)-2-(3-(4-hydroxypiperidine-1-carbonyl)-4,5,6,7-tetrahydro-1H-indazol-1-yl)ethanone], the IC50 amounted to 1.2 nM.

Consider `Cc1ccnc(C2CCN(C(=O)Cn3nc(C(=O)N4C[C@@H](C)O[C@@H](C)C4)c4c3CCC4)CC2)c1C` [Example 80, 2-(3-(cis-2,6-dimethylmorpholine-4-carbonyl)-5,6-dihydrocyclopenta[c]pyrazol-1(4H)-yl)-1-(4-(3,4-dimethylpyridin-2-yl)piperidin-1-yl)ethan-1-one], for which the half-maximal inhibitory concentration (IC50) was determined as 74.2 nM.

As to `Cc1cc(F)ccc1C1CCN(C(=O)Cn2nc(C(=O)N3CC[C@@H](O)[C@H](F)C3)c3c2CCC3)CC1` [Example 54, 1-(4-(4-fluoro-2-methylphenyl)piperidin-1-yl)-2-(3-((3R,4R)-3-fluoro-4-hydroxypiperidine-1-carbonyl)-5,6-dihydrocyclopenta[c]pyrazol-1(4H)-yl)ethanone], the half-maximal inhibitory concentration (IC50) came to 162 nM.

`C[C@@H]1CN(C(=O)c2nn(CC(=O)N3CCC(c4cc(F)c(F)c(F)c4)CC3)c3c2CCC3)C[C@H](C)O1` [Example 126, 2-{3-[(2R,6S)-2,6-dimethylmorpholine-4-carbonyl]-5,6-dihydrocyclopenta[c]pyrazol-1(4H)-yl}-1-[4-(3,4,5-trifluorophenyl)piperidin-1-yl]ethan-1-one]: the concentration for half-maximal inhibition (IC50) came to 59 nM.

Turning to `C[C@@H]1CN(C(=O)c2nn(CC(=O)N3CCC(c4cc(F)ccc4F)CC3)c3c2CCC3)C[C@H](C)O1` [Example 150, 1-[4-(2,5-difluorophenyl)piperidin-1-yl]-2-{3-[(2R,6S)-2,6-dimethylmorpholine-4-carbonyl]-5,6-dihydrocyclopenta[c]pyrazol-1(4H)-yl}ethan-1-one], the 50% inhibitory concentration (IC50) stood at 122 nM.

For the compound `C[C@@H]1CN(C(=O)c2nn(CC(=O)N3CCC(c4cccc(C(C)(F)F)c4)CC3)c3c2CCC3)C[C@H](C)O1` [Example 159, 1-{4-[3-(1,1-difluoroethyl)phenyl]piperidin-1-yl}-2-{3-[(2R,6S)-2,6-dimethylmorpholine-4-carbonyl]-5,6-dihydrocyclopenta[c]pyrazol-1(4H)-yl}ethan-1-one], the half-maximal inhibitory concentration (IC50) was found to be 156 nM.

For `C[C@@H]1CN(C(=O)c2nn(CC(=O)N3CCC(c4cc(F)c(Cl)c(F)c4)CC3)c3c2CCC3)C[C@H](C)O1` [Example 101, 1-[4-(4-chloro-3,5-difluorophenyl)piperidin-1-yl]-2-{3-[(2R,6S)-2,6-dimethylmorpholine-4-carbonyl]-5,6-dihydrocyclopenta[c]pyrazol-1(4H)-yl}ethan-1-one], the IC50 was determined as 27.9 nM.

`C[C@@H]1CN(C(=O)c2nn(CC(=O)N3CCC(c4ccc(F)c(F)c4)CC3)c3c2CCC3)C[C@H](C)O1` [Example 144, 1-[4-(3,4-difluorophenyl)piperidin-1-yl]-2-{3-[(2R,6S)-2,6-dimethylmorpholine-4-carbonyl]-5,6-dihydrocyclopenta[c]pyrazol-1(4H)-yl}ethan-1-one]: the concentration for half-maximal inhibition (IC50) was 104 nM.

For `COc1c(F)cccc1C1CCN(C(=O)Cn2nc(C(=O)N3C[C@@H](C)O[C@@H](C)C3)c3c2CCC3)CC1` [Example 115, 2-{3-[(2R,6S)-2,6-dimethylmorpholine-4-carbonyl]-5,6-dihydrocyclopenta[c]pyrazol-1(4H)-yl}-1-[4-(3-fluoro-2-methoxyphenyl)piperidin-1-yl]ethan-1-one], the IC50 was found to be 48.5 nM.

With `Cc1cccc(C2CCN(C(=O)Cn3nc(C(=O)N4CC[C@H](O)[C@H](F)C4)c4c3C[C@@H]3C[C@H]43)CC2)c1C` [Example 29, 1-[4-(2,3-dimethylphenyl)piperidin-1-yl]-2-{(3bS,4aS)-3-[(3R,4S)-3-fluoro-4-hydroxypiperidine-1-carbonyl]-3b,4,4a,5-tetrahydro-1H-cyclopropa[3,4]cyclopenta[1,2-c]pyrazol-1-yl}ethan-1-one], the half-inhibitory concentration (IC50) was 54.2 nM.

Consider `C[C@@H]1CN(C(=O)c2nn(CC(=O)N3CCC(c4cccc(F)c4C(F)(F)F)CC3)c3c2CCC3)C[C@H](C)O1` [Example 118, 2-{3-[(2R,6S)-2,6-dimethylmorpholine-4-carbonyl]-5,6-dihydrocyclopenta[c]pyrazol-1(4H)-yl}-1-{4-[3-fluoro-2-(trifluoromethyl)phenyl]piperidin-1-yl}ethan-1-one], for which the IC50 came out at 49.8 nM.

Take `Cc1c(C2CCN(C(=O)Cn3nc(C(=O)N4CCO[C@@H](CO)C4)c4c3C[C@H]3C[C@@H]43)CC2)cccc1C(F)(F)F` [Example 5, 2-((3bR,4aR)-3-((R)-2-(hydroxymethyl)morpholine-4-carbonyl)-3b,4,4a,5-tetrahydro-1H-cyclopropa[3,4]cyclopenta[1,2-c]pyrazol-1-yl)-1-(4-(2-methyl-3-(trifluoromethyl)phenyl)piperidin-1-yl)ethanone]: the IC50 worked out at 1.7 nM.
